# Tests used:
# Type in all cases: cell-based
# T-47D cells = assay: Inhibition of cell proliferation in T-47D cells (CCK-8); conditions: 6 days treatment, CCK-8 cell viability
# How it was run: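 Viability by CCK-8 after a 6-day, 37 °C/5% CO2 exposure of T-47D cells (3,000/well, RPMI-1640 + 10% FBS) to graded PROTAC concentrations. Inhibition rates gave the IC50.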
# MCF-7 cells = assay: Inhibition of cell proliferation in MCF-7 cells (CCK-8); conditions: MCF-7 cell proliferation, 6 days treatment
# How it was run: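 IC50 from CCK-8 viability-based inhibition after 6-day treatment of MCF-7 cells (800 cells/well, 10% FBS DMEM, 37 °C, 5% CO2) with serially varied compound concentrations.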
# ERα [1] = target: T1, ERα (Homo sapiens, UniProt P03372); assay: ERα degradation in T-47D cells (Western blot); conditions: 4 hours
# T1 sequence (P03372 1-595): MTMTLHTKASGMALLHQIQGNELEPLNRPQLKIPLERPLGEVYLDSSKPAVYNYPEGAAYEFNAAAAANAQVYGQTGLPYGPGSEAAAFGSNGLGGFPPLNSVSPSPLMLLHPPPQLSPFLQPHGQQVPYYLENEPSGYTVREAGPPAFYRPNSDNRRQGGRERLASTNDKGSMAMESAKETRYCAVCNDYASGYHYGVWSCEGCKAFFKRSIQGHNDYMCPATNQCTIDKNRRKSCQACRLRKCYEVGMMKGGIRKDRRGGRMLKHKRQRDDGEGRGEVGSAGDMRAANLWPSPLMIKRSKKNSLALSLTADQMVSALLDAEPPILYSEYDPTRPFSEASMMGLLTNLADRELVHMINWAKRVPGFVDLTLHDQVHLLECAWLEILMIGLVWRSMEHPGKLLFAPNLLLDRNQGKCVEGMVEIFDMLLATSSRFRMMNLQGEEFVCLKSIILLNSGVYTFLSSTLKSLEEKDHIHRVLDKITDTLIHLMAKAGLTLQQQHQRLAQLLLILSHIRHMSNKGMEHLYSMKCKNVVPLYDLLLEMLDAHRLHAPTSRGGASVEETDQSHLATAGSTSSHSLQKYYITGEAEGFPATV
# How it was run: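 ERα was quantified by immunoblot of RIPA lysates (20 µg total protein), normalised to an internal reference band, and degradation was expressed against control. Lysates came from T-47D cells plated at 3×10^5 cells/well and dosed 4 hours at 37°C with compound at 0.15-1000 nM final concentration.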
# ERα [2] = target: T1, ERα; assay: ERα degradation in MCF-7 cells (Western blot); parameters: host or cells: MCF-7; conditions: 4 hours
# How it was run: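 ERα degradation was quantified by immunoblot densitometry, ERα signal divided by internal-reference signal and compared with control. Compounds were applied to MCF-7 cells for 4 hours at final concentrations of 0.15–1000 nM, with 20 µg total protein loaded per lane.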
Compound,"IC50 (T-47D cells; Homo sapiens, T47D, 144 h) [nM]","IC50 (MCF-7 cells; Homo sapiens, MCF7, 144 h) [nM]",Degradation rate of ERα in T-47D cells (%) (ERα [1]; 1nM),Degradation rate of ERα in T-47D cells (%) (ERα [1]; 10nM),Degradation rate of ERα in MCF-7 cells (%) (ERα [2]; 1nM),Degradation rate of ERα in MCF-7 cells (%) (ERα [2]; 10nM),IC50 (T-47D cells) [nM],IC50 (MCF-7 cells) [nM]
"C[C@@H]1Cc2cc(O)ccc2C(c2c(F)cc(N3CCC4(CCC(N5CC6(CCC7(CC6)COc6c7ccc7c6CN(C6CCC(=O)NC6=O)C7=O)C5)CC4)CC3)cc2F)N1CC(F)F (stereo partly drawn) [ER-P-21, 3-(1-(3-(4-((3R)-2-(2,2-difluoroethyl)-6-hydroxy-3-methyl-1,2,3,4-tetrahydroisoquinolin-1-yl)-3,5-difluorophenyl)-3-azaspiro[5.5]undecan-9-yl)-6""-oxo-6"",8""-dihydro-2""H,7""H-dispiro[azetidine-3,1'-cyclohexane-4',3""-furo[2,3-e]isoindol]-7""-yl)piperidine-2,6-dione]",1.3,15.1,42,65,50,69,,
O=C1CCC(Nc2ccc3c(c2)OCC2(CCN(C[C@H]4CC[C@@H](OC5CCN(c6ccc([C@@H]7c8ccc(O)cc8CC[C@@H]7c7ccccc7)cc6)CC5)CC4)CC2)C3)C(=O)N1 (stereo partly drawn) [ER-P-41],37.3,377,17,21,13,15,,
O=C1CCC(Nc2ccc3c(c2)OC[C@@H]2CN(C4CC5(CCN(c6ccc([C@@H]7c8ccc(O)cc8CC[C@@H]7c7ccccc7)cc6)CC5)C4)CCN32)C(=O)N1 (stereo partly drawn) [ER-P-35],22.7,876,21,21,6,-3,,
"(S)-N-((S)-2,6-dioxopiperidin-3-yl)-3-(((1S,4R)-4-((1-(4-((1R,2S)-6-hydroxy-2-phenyl-1,2,3,4-tetrahydronaphthalen-1-yl)phenyl)piperidin-4-yl)oxy)cyclohexyl)methy l)-1,2,3,4,4a,5-hexahydrobenzo[b]pyrazi no[1,2-d][1,4]oxazine-8-carboxamide [ER-P-47]",,,-14,25,21,26,1.47,8430
"CN(c1ccc2c(c1)COC[C@H]1CN(CC3CCC(OC4CCN(c5ccc([C@@H]6c7ccc(O)cc7CC[C@@H]6c6ccccc6)cc5)CC4)CC3)CCN21)C1CCC(=O)NC1=O (stereo partly drawn) [ER-P-53, 3-(((R)-3-((4-((1-(4-((1R,2S)-6-hydroxy-2-phenyl-1,2,3,4-tetrahydronaphthalen-1-yl)phenyl)piperidin-4-yl)oxy)cyclohexyl)methyl)-1,2,3,4,4a,5-hexahydro-7H-benzo[e]pyrazino[2,1-c][1,4]oxazepin-9-yl)(methyl)amino)piperidine-2,6-dione]",,,18,33,10,21,252,1310
"O=C1CC[C@H](NC(=O)c2ccc3c(c2F)OCC32CCN(C3CCC4(CC3)CN(c3ccc([C@@H]5c6ccc(O)cc6CC[C@@H]5c5ccccc5)cc3)C4)CC2)C(=O)N1 [ER-P-38, N-((S)-2,6-dioxopiperidin-3-yl)-7-fluoro-1'-(2-(4-((1R,2S)-6-hydroxy-2-phenyl-1,2,3,4-tetrahydronaphthalen-1-yl)phenyl)-2-azaspiro[3.5]nonan-7-yl)-2H-spiro[benzofuran-3,4'-piperidine]-6-carboxamide]",18.6,505,1,3,12,-14,,
"O=C1CCC(N2Cc3c(ccc4c3OCC43CCC4(CC3)CN(CC3CCN(c5ccc([C@@H]6c7ccc(O)cc7CC[C@@H]6c6ccccc6)cc5)CC3)C4)C2=O)C(=O)N1 (stereo partly drawn) [ER-P-23, 3-(1-((1-(4-((1R,2S)-6-hydroxy-2-phenyl-1,2,3,4-tetrahydronaphthalen-1-yl)phenyl)piperidin-4-yl)methyl)-6""-oxo-6"",8""-dihydro-2""H,7""H-di(pyridyl)furan[azetidine-3,1'-cyclohexane-4',3""-furo[2,3-e]isoindol]-7""-yl)piperidine-2,6-dione]",1.61,< 0.256,40,67,26,48,,
"O=C1CC[C@H](NC(=O)c2ccc3c(c2)OCC[C@H]2CN(CC4CCC(OC5CCN(c6ccc([C@@H]7c8ccc(O)cc8CC[C@@H]7c7ccccc7)cc6)CC5)CC4)CCN32)C(=O)N1 (stereo partly drawn) [ER-P-44, (S)-N-((S)-2,6-dioxopiperidin-3-yl)-3-((4-((1-(4-((1R,2S)-6-hydroxy-2-phenyl-1,2,3,4-tetrahydronaphthalen-1-yl)phenyl)piperidin-4-yl)oxy)cyclohexyl)methyl)-2,3,4,4a,5,6-hexahydro-1H-benzo[b]pyrazino[1,2-d][1,4]oxazepine-9-carboxamide]",1.26,,-29,30,10,39,,805
Cn1c(=O)n(C2CCC(=O)NC2=O)c2ccc3c(c21)C1(CCN(C(=O)[C@H]2CC[C@H](CN4CCN(c5ccc([C@@H]6c7ccc(O)cc7CC[C@@H]6c6ccccc6)cc5)CC4)CC2)CC1)CO3 (stereo partly drawn) [ER-P-7],1.74,603,44,77,22,62,,
Cn1c(=O)n(C2CCC(=O)NC2=O)c2cc3c(cc21)C1(CCN(CC2CCC4(CC2)CCN(c2ccc([C@@H]5c6ccc(O)cc6CC[C@@H]5c5ccccc5)cc2)CC4)CC1)CO3 (stereo partly drawn) [ER-P-62],2.64,183,13,52,14,39,,
"O=C1CC[C@H](NC(=O)c2ccc3c(c2F)OCC32CCN(CC3CCN(c4ccc([C@@H]5c6ccc(O)cc6CC[C@@H]5c5ccccc5)cc4)CC3)CC2)C(=O)N1 [ER-P-42, N-((S)-2,6-dioxopiperidin-3-yl)-7-fluoro-1'-((1-(4-((1R,2S)-6-hydroxy-2-phenyl-1,2,3,4-tetrahydronaphthalen-1-yl)phenyl)piperidin-4-yl)methyl)-2H-spiro[benzofuran-3,4'-piperidine]-6-carboxamide]",10.4,4500,-27,-28,-20,-3,,
"C[C@@H]1Cc2cc(O)ccc2C(c2c(F)cc(N3CCC(C(=O)N4CCC(N5CCC6(CC5)COc5c6ccc6c5n(C)c(=O)n6C5CCC(=O)NC5=O)CC4)CC3)cc2F)N1CC(F)F (stereo partly drawn) [ER-P-30, 3-(1'-(1-(1-(4-((3R)-2-(2,2-difluoroethyl)-6-hydroxy-3-methyl-1,2,3,4-tetrahydroisoquinolin-1-yl)-3,5-difluorophenyl)piperidine-4-carbonyl)piperidin-4-yl)-1-methyl-2-oxo-1,2-dihydro-3H,7H-spiro[benzofuro[6,7-d]imidazole-6,4'-piperidin]-3-yl)piperidine-2,6-dione]",2.42,4960,47,17,42,14,,
"Cn1c(=O)n(C2CCC(=O)NC2=O)c2ccc3c(c21)OCC31CCN(C2CC3(CCN(c4ccc([C@@H]5c6ccc(O)cc6CC[C@@H]5c5ccccc5)cc4)CC3)C2)CC1 (stereo partly drawn) [ER-P-15, 3-(1'-(7-(4-((1R,2S)-6-hydroxy-2-phenyl-1,2,3,4-tetrahydronaphthalen-1-yl)phenyl)-7-azaspiro[3.5]nonan-2-yl)-1-methyl-2-oxo-1,2-dihydro-3H,7H-spiro[benzofuro[6,7-d]imidazole-6,4'-piperidin]-3-yl)piperidine-2,6-dione]",,2980,44,31,22,26,0.65,

# — patent EP4722219A1 (Gan & Lee Pharmaceuticals Co., Ltd., priority 2023, dated 2024)
